{"source": "paper PMC4027054", "about": "(Journal of medicinal chemistry, 2013)", "key": {"[1]": {"system": "AZT-resistant HIV (D67N/K70R/T215F/K219Q)", "experiment": "Single replication cycle antiviral assay, AZT-resistant virus", "type": "cell-based", "conditions": "read-out: EC50 AZTr HIV"}, "[2]": {"system": "NNRTI-resistant HIV (L100I/K103N)", "type": "cell-based", "conditions": "read-out: EC50 NNRTIr HIV"}, "[3]": {"target": "AZT-resistant HIV-1 RT (AZTr) D67N/K70R/T215F/K219Q (Human immunodeficiency virus type 1 group M subtype B, UniProt P03366, D666N/K669R/K818Q/T814F)", "type": "biochemical", "conditions": "ATP-mediated excision by AZTr RT; chain-terminated primer"}, "[4]": {"system": "WT HIV-1", "type": "cell-based", "conditions": "for antiviral activity in the single replication cycle assay: concentrations up to 10 μM, data not shown"}, "[5]": {"system": "HIV-1 IIIB", "experiment": "microbe, parasite or virus in culture", "type": "cell-based", "conditions": "Human immunodeficiency virus 1, IIIB, CEM-SS, read-out: Inhibition % @ 10 μM"}, "[6]": {"experiment": "Compound cytotoxicity / cell viability in the cytoprotection assay", "type": "cell-based", "conditions": "human, CEM-SS cells"}}, "note": "“Also recorded” adds a separate entry of the source."}
{"compound": "3’-Azidothymidine [AZT, reference compound]", "values": [{"measurement": "EC50", "setting": "[1]", "value": 7900, "unit": "nM"}, {"measurement": "EC50", "setting": "[2]", "value": 120, "unit": "nM"}, {"measurement": "rate of nucleotide excision of the terminal nucleotide", "setting": "[3]", "value": 0.024, "unit": "min⁻¹"}, {"measurement": "EC50", "setting": "[4]; read-out: Single Replication Cycle Assay EC50, WT HIV, WT HIV-1, P4R5 cells", "value": 140, "unit": "nM"}]}
{"compound": "Cc1cn([C@H]2C[C@H](n3nncc3COc3cccc4ccccc34)[C@@H](CO)O2)c(=O)[nH]c1=O", "note": "[Compound 9c, 1-((2R,4S,5S)-5-(Hydroxymethyl)-4-(5-((naphthalen-1-yloxy)methyl)-1H-1,2,3-triazol-1-yl)tetrahydrofuran-2-yl)-5-methylpyrimidine-2,4(1H,3H)-dione]", "values": [{"measurement": "antiviral activity in the single replication cycle assay", "setting": "[4]", "value": "none showed significant antiviral activity"}]}
{"compound": "COc1ccc2cc(OCc3cnnn3[C@H]3C[C@H](n4cc(C)c(=O)[nH]c4=O)O[C@@H]3CO)ccc2c1", "note": "[Compound 9e, 1-((2R,4S,5S)-5-(Hydroxymethyl)-4-(5-(((6-methoxynaphthalen-2-yl)oxy)methyl)-1H-1,2,3-triazol-1-yl)tetrahydrofuran-2-yl)-5-methylpyrimidine-2,4(1H,3H)-dione]", "values": [{"measurement": "antiviral activity in the single replication cycle assay", "setting": "[4]", "value": "none showed significant antiviral activity"}]}
{"compound": "Cc1cn([C@H]2C[C@H](n3nncc3-c3ccc(Oc4ccccc4)cc3)[C@@H](CO)O2)c(=O)[nH]c1=O", "note": "[Compound 18i, 1-((2R,4S,5S)-5-(Hydroxymethyl)-4-(5-(4-phenoxyphenyl)-1H-1,2,3-triazol-1-yl)tetrahydrofuran-2-yl)-5-methylpyrimidine-2,4(1H,3H)-dione]", "values": [{"measurement": "antiviral activity in the single replication cycle assay", "setting": "[4]", "value": "none showed significant antiviral activity"}]}
{"compound": "Cc1cn([C@H]2C[C@H](n3nncc3-c3ccc(-c4ccccc4)cc3)[C@@H](CO)O2)c(=O)[nH]c1=O", "note": "[Compound 18j, 1-((2R,4S,5S)-4-(5-([1,1’-Biphenyl]-4-yl)-1H-1,2,3-triazol-1-yl)-5-(hydroxymethyl)tetrahydrofuran-2-yl)-5-methylpyrimidine-2,4(1H,3H)-dione]", "values": [{"measurement": "antiviral activity in the single replication cycle assay", "setting": "[4]", "value": "none showed significant antiviral activity"}]}
{"compound": "Cc1cn([C@H]2C[C@H](n3nncc3C3CCCCC3)[C@@H](CO)O2)c(=O)[nH]c1=O", "note": "[Compound 18l, 1-((2R,4S,5S)-4-(5-Cyclohexyl-1H-1,2,3-triazol-1-yl)-5-(hydroxymethyl)tetrahydrofuran-2-yl)-5-methylpyrimidine-2,4(1H,3H)-dione]", "values": [{"measurement": "inhibition at 10 µM", "setting": "[5]", "value": 100, "unit": "%"}, {"measurement": "antiviral activity in the single replication cycle assay", "setting": "[4]", "value": "did not produce significant antiviral activity; also recorded: none showed significant antiviral activity"}, {"measurement": "viability at 6 days, 10 µM", "setting": "[6]", "value": 100, "unit": "%"}]}
{"compound": "Cc1cn([C@H]2C[C@H](n3nncc3-c3ccc(Cl)c(Cl)c3)[C@@H](CO)O2)c(=O)[nH]c1=O", "note": "[Compound 18n, 1-((2R,4S,5S)-4-(5-(3,4-Dichlorophenyl)-1H-1,2,3-triazol-1-yl)-5-(hydroxymethyl)tetrahydrofuran-2-yl)-5-methylpyrimidine-2,4(1H,3H)-dione]", "values": [{"measurement": "antiviral activity in the single replication cycle assay", "setting": "[4]", "value": "none showed significant antiviral activity"}]}
{"compound": "Cc1cn([C@H]2C[C@H](n3nncc3-c3cccc4ccccc34)[C@@H](COP(=O)([O-])OP(=O)([O-])OP(=O)([O-])[O-])O2)c(=O)[nH]c1=O.[Na+].[Na+].[Na+].[Na+]", "note": "[Compound 21a]", "values": [{"measurement": "rate of nucleotide excision of the terminal nucleotide", "setting": "[3]", "value": 0.0126, "unit": "min⁻¹"}]}
